The text below walks through data of ChEMBL document CHEMBL1123897, “Nucleosides. 146. 1-Methyl-5-(2-deoxy-2-fluoro-beta-D-arabinofuranosyl)uracil, the C-nucleoside isostere of the potent antiviral agent 1-(2-deoxy-2-fluoro-beta-D-arabinofuranosyl)thymine (FMAU). Studies directed toward the synthesis of 2'-deoxy-2'-substituted arabino nucleosides. 6” (1987).

Assay type in all cases: functional
Settings in all cases: read-out: ED50 (the source's name)

For assay [1], the species on record is Homo sapiens. The assay is described as follows: In vitro inhibitory activity against Herpes simplex virus-1(HSV-1) was determined in human foreskin fibroblasts.
The species named for assay [2] is Homo sapiens. The assay is described as follows: In vitro inhibitory activity against Herpes simplex […] was determined in human foreskin fibroblasts.
The species named for assay [3] is Homo sapiens. The assay is described as follows: In vitro inhibitory activity against Varicella zoster virus(VZV) was determined in human foreskin fibroblasts.

Consider `Cn1cc([C@@H]2O[C@H](CO)[C@@H](O)[C@@H]2F)c(=O)[nH]c1=O`, for which the EC50 in assay [1] was found to be 8.5 µM; in assay [2] it was 23 µM; in assay [3], 6.4 µM.

For the molecule `Cc1cn([C@@H]2O[C@H](CO)[C@@H](O)[C@@H]2F)c(=O)[nH]c1=O` [5-METHYL-2'-FLUOROARAURACIL], the values for the EC50 in assay [1], in assay [2] and in assay [3] were 0.06 µM, 0.13 µM and 0.02 µM, respectively.
